Reference: US20100048638A1, “HEPARAN SULFATE INHIBITORS” (ZACHARON PHARMACEUTICALS, INC., priority 2008, published 2010)

How the values were obtained:
[1] = tested on: FGF2 binding to heparan sulfate in human cervical cancer cells (HeLa); assay: FGF2 binding to heparan sulfate in HeLa cells, flow cytometry; assay type: cell-based; conditions: various concentrations
Experimental: (§1) FIG. 2 illustrates the impact of 4-(4-(3,4-dimethoxyphenyl)-6-phenylpyrimidin-2-yl)morpholine on the ability of FGF2 to bind to heparan sulfate in human cervical cancer cells (HeLa). FGF2 binding to heparan sulfate is measured by culturing HeLa cells in the presence of the heparan sulfate modulator. After 2 days of growth, the cells are released with 5 mM EDTA and probed with biotinylated FGF2 for 30 minutes on ice. After washing unbound FGF2, bound FGF2 is detected with streptavidin-Cy5-PE. After washing to remove unbound streptavidin-Cy5-PE, the bound probe is quantified using a flow cytometry. The heparan sulfate inhibitors are tested on at least three independent occasions, in duplicate over a dose range. Heparan sulfate specificity is determined by probing with lectins to other glycan classes (chondroitin sulfate, O-linked, N-linked, etc.). FIG. 3 illustrates the impact of 4-(4-(3,4-dimethoxyphenyl)-6-phenylpyrimidin-2-yl)morpholine on the sulfation of heparan sulfate found in human cervical cancer cells (HeLa). The sulfation of heparan sulfate is determined by culturing HeLa cells in the presence of the heparan sulfate modulator. Heparan sulfate is isolated from treated and untreated cells by lysing the cells in 0.1 N NaOH. After neutralization, the cell lysate is treated with pronase to degrade the core proteins. Subsequently, the heparan sulfate is purified on diethylaminoethyl (DEAE) resin, eluted with 1.0 M NaCl, desalted using gel filtration and dried. To characterize the composition of heparan sulfate produced in the presence of the heparan sulfate modulator, the isolate heparan sulfate is digested to disaccharides using a blend of heparin lyase I, II, and III (from flavobacterium heparinum). The disaccharides are quantified by HPLC using a propac PA1 column using known heparan sulfate disaccharides as standards. Specifically, FIG. 3A illustrates the impact of 4-(4-(3,4-dimethoxyphenyl)-6-phenylpyrimidin-2-yl)morpholine on the amount of specific disaccharide units; and FIG. 3B illustrates the impact of 4-(4-(3,4-dimethoxyphenyl)-6-phenylpyrimidin-2-yl)morpholine on the amount of specific glucosamine and uronic acid modifications.
as §1, with “FIG. 4” for “FIG. 2”, “of 7-((3-chlorophenyl)(pyridin-2-ylamino)methyl)-2-methylquinolin-8-ol” for “of 4-(4-(3,4-dimethoxyphenyl)-6-phenylpyrimidin-2-yl)morpholine”, “FIG. 5” for “FIG. 3”, “heparinum). […]” for “heparinum). The disaccharides are quantified by HPLC using a propac PA1 column using known heparan sulfate disaccharides as standards. Specifically, FIG. 3A illustrates the impact of 4-(4-(3,4-dimethoxyphenyl)-6-phenylpyrimidin-2-yl)morpholine on the amount of specific disaccharide units; and FIG. 3B illustrates the impact of 4-(4-(3,4-dimethoxyphenyl)-6-phenylpyrimidin-2-yl)morpholine on the amount of specific glucosamine and uronic acid modifications.”

[2] = tested on: cultured primary human fibroblast from MPS patients; assay: In vitro MPS model: accumulation of GAG fragments in fibroblasts; assay type: cell-based
Source text: Substrate reduction therapy (SRT) is validated for MPS. The non-specific inhibitor of sulfation, sodium chlorate is used herein for such validation. […] In certain instances, in vitro MPS models used herein are based on measuring the accumulation of GAG fragments in cultured primary human fibroblast from MPS patients. In some instances, the GAGs that accumulate in MPS patients are much smaller than normal tissue GAGs and they lack a core protein on their reducing termini. Based on these features the in vitro MPS model used in certain instances herein is based on a method of tagging reducing ends of the GAGs with a detectable label and analyzing (i.e., detecting and/or measuring) the detectable labels using a device suitable for detecting the label (e.g., an HPLC with a fluorimeter).

heparan sulfate = assay: Heparan sulfate structure in liver and tumor after sacrifice, SKOV3 model; assay type: in vivo, mice
Experimental: (§2) After sacrifice, the liver and tumor were analyzed for changes in the structure of heparan sulfate.

SKOV3 cells = assay: Human ovarian cancer model, SKOV3 subcutaneous tumors in female nude mice; assay type: in vivo; conditions: 1, 3 and 10 mg/kg/day, two IP injections daily
Experimental: Compound 9 was tested for anti-cancer activity in a Human ovarian cancer model. Briefly, 5 million SKOV3 cells were injected in 100 ul mixed with matrigel subcutaneously into female nude mice. The tumors were allowed to grow to 0.1 cm^3 then the mice were randomized into four groups (Vehicle, 1, 3, and 10 mg/kg/day). Each group received the indicated daily dose divided into two IP injections. Vehicle alone received the formulation only.

[3] = tested on: 6-O sulfation of heparan sulfate; assay: Change in the structure (sulfation) of heparan sulfate in cultured human cells; assay type: cell-based; conditions: FIG. 21A
Experimental: FIG. 2 illustrates the impact of 4-(4-(3,4-dimethoxyphenyl)-6-phenylpyrimidin-2-yl)morpholine on the ability of FGF2 to bind to heparan sulfate in human cervical cancer cells (HeLa). FGF2 binding to heparan sulfate is measured by culturing HeLa cells in the presence of the heparan sulfate modulator. After 2 days of growth, the cells are released with 5 mM EDTA and probed with biotinylated FGF2 for 30 minutes on ice. After washing unbound FGF2, bound FGF2 is detected with streptavidin-Cy5-PE. After washing to remove unbound streptavidin-Cy5-PE, the bound probe is quantified using a flow cytometry. The heparan sulfate inhibitors are tested on at least three independent occasions, in duplicate over a dose range. Heparan sulfate specificity is determined by probing with lectins to other glycan classes (chondroitin sulfate, O-linked, N-linked, etc.). FIG. 3 illustrates the impact of 4-(4-(3,4-dimethoxyphenyl)-6-phenylpyrimidin-2-yl)morpholine on the sulfation of heparan sulfate found in human cervical cancer cells (HeLa). The sulfation of heparan sulfate is determined by culturing HeLa cells in the presence of the heparan sulfate modulator. […] The disaccharides are quantified by HPLC using a propac PA1 column using known heparan sulfate disaccharides as standards. […]
as §2

[4] = tested on: synthesis of PAPs / heparan sulfate sulfation; conditions: cited from earlier work
[5] = in vitro model of MPS IIIA, human MPS IIIA fibroblasts

SMILES | inhibition of FGF-2 binding to heparan sulfate [1] | inhibition of heparan sulfate biosynthesis ([2]; human MPS IIIA fibroblasts) | GAG accumulation [2, 5] | also measured
COc1ccc(-c2cc(-c3ccccc3)nc(N3CCOCC3)n2)cc1OC [compound 1, 4-(4-(3,4-dimethoxyphenyl)-6-phenylpyrimidin-2-yl)morpholine] | inhibition of FGF-2 binding | inhibition of heparan sulfate biosynthesis | reduce GAG accumulation | –
Cc1ccc2ccc(C(Nc3ccccn3)c3cccc(Cl)c3)c(O)c2n1 (stereo not drawn) [compound 2, 7-((3-chlorophenyl)(pyridin-2-ylamino)methyl)-2-methylquinolin-8-ol] | inhibition of FGF-2 binding | – | – | –
Cc1ccc2ccc(C(Nc3ccccn3)c3ccccc3F)c(O)c2n1 (stereo not drawn) [compound 3, 7-((2-fluorophenyl)(pyridin-2-ylamino)methyl)-2-methylquinolin-8-ol] | inhibition of FGF-2 binding | – | – | –
CC(C)C(=O)NC(c1cccs1)c1cc([N+](=O)[O-])c2cccnc2c1O (stereo not drawn) [compound 5, 7-((thiophen-2-yl)(isobutoylamino)methyl)-5-nitroquinolin-8-ol] | inhibition of FGF-2 binding | inhibition of heparan sulfate biosynthesis | reduce GAG accumulation | –
CCc1cc(=O)oc2cc(Oc3ccc([N+](=O)[O-])cc3C(F)(F)F)ccc12 [compound 6, 4-ethyl-7-(4-nitro-2-(trifluoromethyl)phenoxy)-2H-chromen-2-one] | inhibition of FGF-2 binding | – | – | –
CC(C)(C)C1CCc2c(sc3nc(C(F)(F)F)[nH]c(=O)c23)C1 (stereo not drawn) [compound 7] | inhibition of FGF-2 binding | inhibition of heparan sulfate biosynthesis | reduce GAG accumulation | –
O=C(NC(=S)N(Cc1ccccc1)Cc1ccccc1)c1cccc(Cl)c1 [compound 8] | inhibition of FGF-2 binding | inhibition of heparan sulfate biosynthesis | reduce GAG accumulation | –
C[S+]([O-])c1ccc(-c2nc(-c3ccc(F)cc3)c(-c3ccncc3)[nH]2)cc1 (stereo not drawn) [compound 9] | – | – | – | heparan sulfate biosynthesis in liver (heparan sulfate; liver of treated animals, after sacrifice, 1, 3 and 10 mg/kg/day IP): altered in the liver of treated animals in a dose dependent manner; changes in the structure of heparan sulfate in tumor (heparan sulfate; small tumor remaining in treated animals, after sacrifice): No changes were detected; tumor growth (SKOV3 cells): blocked tumor growth at all doses tested; 6-O sulfation of heparan sulfate [3]: inhibits the 6-O sulfation of heparan sulfate
[Na+].[O-][Cl+2]([O-])[O-] [sodium chlorate, reference compound] | – | – | reduction of GAG accumulation | GAG accumulation ([2]; in vitro model of MPS I): reduction of GAG accumulation; GAG accumulation ([2]; in vitro model of MPS II): reduction of GAG accumulation; synthesis of PAPs (sulfate donor) ([4]; 30-60 mM): inhibits the synthesis of PAPs; sulfation of heparan sulfate produced by cells ([4]; cells grown in the presence of the substance): reduced sulfation
